Assay results reported in patent US20150336985A1, “FUNGICIDAL HETEROCYCLIC COMPOUNDS” (E. I. DU PONT DE NEMOURS AND COMPANY, priority 2012, published 2015).

Legend:
Plasmopara viticola = test: Test A: grape downy mildew, curative spray on inoculated grape seedlings, visual disease rating; format: in vivo, Plasmopara viticola (on grape seedlings); conditions: 40 ppm, rating 100 = 100% disease control, 0 = no disease control relative to the controls
Phytophthora infestans [1] = format: in vivo, Phytophthora infestans (on tomato seedlings); conditions: 40 ppm; tomato late blight, preventive; rating 100 = 100% disease control, 0 = no disease control relative to the controls
Phytophthora infestans [2] = format: in vivo, Phytophthora infestans (on tomato seedlings); conditions: 40 ppm; tomato late blight, curative (17 h after inoculation); rating 100 = 100% disease control, 0 = no disease control relative to the controls

Structure (SMILES) | Test A rating (disease control) (Plasmopara viticola) | Test B1 rating (disease control) (Phytophthora infestans [1]) | Test B2 rating (disease control) (Phytophthora infestans [2])
Cc1cc(C(F)(F)F)nn1CC(=O)N1CCC(c2nc3c(s2)CCC(Cc2c(F)cccc2F)C3=O)CC1 (single isomer, unassigned) [Compound 5, 5-[(2,6-difluorophenyl)methyl]-6,7-dihydro-2-[1-[2-[5-methyl-3-(trifluoromethyl)-1H-pyrazol-1-yl]acetyl]-4-piperidinyl]-4(5H)-benzonthiazolone] | 99 | 100 | 99
Cc1cc(C(F)(F)F)nn1CC(=O)N1CCC(c2nc3c(s2)CCC(Cc2c(F)cccc2F)C3=O)CC1 (single isomer, unassigned) [Compound 6, 5-[(2,6-difluorophenyl)methyl]-6,7-dihydro-2-[1-[2-[5-methyl-3-(trifluoromethylene)-1H-pyrazol-1-yl]acetyl]-4-piperidinyl]-4(5H)-benzothiazolone] | 78 | 100 | 78
Cc1cc(C(F)(F)F)nn1CC(=O)N1CCC(c2nc3c(s2)CCN(Cc2ccccc2)C3=O)CC1 [Compound 8, 6,7-dihydro-2-[1-[2-[5-methyl-3-(trifluoromethyl)-1H-pyrazol-1-yl]acetyl]-4-piperidinyl]-5-(phenylmethyl)thiazolo[4,5-c]pyridin-4(5H)-one] | 100 | 100 | 99
